According to US8148531B2 (Chroma Therapeutics Ltd., priority 2005, dated 2012):

Legend:
Aurora-A = target: T1, Aurora-A (Homo sapiens, UniProt O14965); experiment: Aurora-A enzyme assay (MBP-coated Flashplate, γ-33P-ATP); format: biochemical; conditions: IC50 range class; read-out: Inhibitor Activity vs Aurora-A
T1 sequence (O14965 1-403): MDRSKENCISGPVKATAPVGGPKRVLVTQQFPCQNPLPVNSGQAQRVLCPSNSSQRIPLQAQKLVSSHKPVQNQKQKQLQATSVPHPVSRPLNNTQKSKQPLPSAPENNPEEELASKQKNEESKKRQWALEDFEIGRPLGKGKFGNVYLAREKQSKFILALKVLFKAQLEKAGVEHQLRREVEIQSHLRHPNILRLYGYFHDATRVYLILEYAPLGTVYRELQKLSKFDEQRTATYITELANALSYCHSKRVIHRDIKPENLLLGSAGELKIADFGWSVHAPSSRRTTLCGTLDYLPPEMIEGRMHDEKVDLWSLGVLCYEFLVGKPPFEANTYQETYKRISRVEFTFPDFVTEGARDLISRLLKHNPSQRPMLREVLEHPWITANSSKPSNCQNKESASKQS
Experimental: (§1) The ability of compounds to inhibit Aurora-A activity was measured using a simple microplate assay for Aurora-A activity, also suitable for high-throughput screening. In brief, γ-^33P-ATP and Aurora-A were incubated in a myelin basic protein (MBP)-coated Flashplate® to generate a scintillation signal. The plates were formatted to contain the inhibitor, controls, positive control (staurosporin) and blanks. After incubation at 37° C. for 1 hour and a subsequent wash procedure, the plates were read on a TopCount-NXT™.
The 384-well basic Flashplate® and the γ-^33P-ATP were obtained from PerkinElmer Life Sciences, Boston, Mass.
(§2) IC50 values were determined by non-linear regression analysis, after fitting the data point results to the equation for sigmoidal dose response with variable slope (% activity against log concentration of compound), using Graphpad Prism software.
Full experimental procedure for this assay can be found within the following reference: Sun, C Journal of Biomolecular Screening 9(5), 2004, 391.

Aurora-B = Aurora-B (Homo sapiens, UniProt Q96GD4); experiment: Aurora-B enzyme assay (identical protocol as Aurora-A); format: biochemical; conditions: IC50 range class; read-out: Inhibitor Activity vs Aurora-B
Experimental: as §1, §2
The Aurora-B enzyme assay follows the identical protocol as Aurora-A.

U937 cell line = experiment: Cell inhibition assay (SRB cell viability), U937; format: cell-based; conditions: Homo sapiens, U-937, IC50 range class, 72 h, read-out: Inhibitor Activity vs U937 cell line
How it was run: (§3)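 Log-phase cells seeded at 1000 cells/well, grown 24 h, then exposed to compounds (20 uM final) for 72 h. Viability read by sulphorhodamine B staining as % inhibition versus DMSO; IC50 from eight-point sigmoidal variable-slope fit.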

HCT 116 cell line = experiment: Cell inhibition assay (SRB cell viability), HCT 116; format: cell-based; conditions: Homo sapiens, IC50 range class, 72 h, read-out: Inhibitor Activity vs HCT 116 cell line
How it was run: as §3

HUT cell line = experiment: Cell inhibition assay (SRB cell viability), HUT; format: cell-based; conditions: IC50 range class, 72 h, read-out: Inhibitor Activity vs HUT cell line
How it was run: as §3

Chain of Aurora-B (Q96GD4 whole entry): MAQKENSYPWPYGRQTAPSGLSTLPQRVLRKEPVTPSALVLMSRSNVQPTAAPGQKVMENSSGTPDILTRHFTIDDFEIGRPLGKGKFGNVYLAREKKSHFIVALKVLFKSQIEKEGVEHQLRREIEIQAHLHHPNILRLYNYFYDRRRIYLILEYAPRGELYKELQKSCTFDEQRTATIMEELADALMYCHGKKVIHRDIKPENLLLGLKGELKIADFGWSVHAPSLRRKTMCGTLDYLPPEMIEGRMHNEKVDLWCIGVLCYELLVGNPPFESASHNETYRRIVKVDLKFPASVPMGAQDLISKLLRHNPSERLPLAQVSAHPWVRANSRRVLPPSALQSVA

Compound | IC50 (Aurora-A) [nM] | IC50 (Aurora-B) [nM] | IC50 (U937 cell line) [nM] | IC50 (HCT 116 cell line) [nM] | IC50 (HUT cell line) [nM]
COc1cc2c(Oc3ccc(NC(=O)Nc4ccc(C(F)(F)F)cc4)cc3F)ccnc2cc1OCC[C@H](N)C(=O)OC1CCCC1 [Example 125, (S)-2-Amino-4-(4-{2-fluoro-4-[3-(4-trifluoromethyl-phenyl)-ureido]-phenoxy}-6-methoxy-quinolin-7-yloxy)-butyric acid cyclopentyl ester] | 2000 to 5000 | 2000 to 5000 | < 1000 | < 1000 | < 1000
COc1cc2c(Oc3ccc(NC(=O)c4ccccc4)cc3)c(Br)cnc2cc1OCC[C@H](N)C(=O)OC1CCCC1 [Example 32] | > 5000 | > 5000 | 1000 to 5000 | > 5000 | 1000 to 5000
COc1cc2c(Oc3ccc(CC(=O)Nc4ccccc4F)cc3)ccnc2cc1OCC[C@H](N)C(=O)O [Example 83, (S)-2-Amino-4-(4-{4-[(2-fluoro-phenylcarbamoyl)-methyl]-phenoxy}-6-methoxy-quinolin-7-yloxy)-butyric acid] | 2000 to 5000 | < 2000 |  |  | 
COc1cc2c(Oc3ccc(NC(=O)Nc4ccccc4)cc3)ccnc2cc1OCC[C@H](N)C(=O)O [Example 96, (S)-2-Amino-4-{6-methoxy-4-[4-(3-phenyl-ureido)-phenoxy]-quinolin-7-yloxy}-butyric acid] | < 2000 | < 2000 |  |  | 
COc1cc2c(Oc3ccc(NC(=O)Nc4ccc(C(F)(F)F)cc4)cc3)ccnc2cc1OCCC[C@@H](N)C(=O)O [Example 120, (R)-2-Amino-5-(6-methoxy-4-{4-[3-(4-trifluoromethyl-phenyl)-ureido]-phenoxy}-quinolin-7-yloxy)-pentanoic acid] | < 2000 | < 2000 |  |  | 
COc1cc2c(Oc3ccc(NCc4ccccc4)cc3)ccnc2cc1OCC[C@H](N)C(=O)O [Example 139, (S)-2-Amino-4-[4-(4-benzylamino-phenoxy)-6-methoxy-quinolin-7-yloxy]-butyric acid] | 2000 to 5000 | 2000 to 5000 |  |  | 
COc1cc2c(Oc3ccc(NC(=O)c4ccc(Cl)cc4)cc3)ccnc2cc1OCC[C@H](N)C(=O)O [Example 67, (S)-2-Amino-4-{4-[4-(4-chloro-benzoylamino)-phenoxy]-6-methoxy-quinolin-7-yloxy}-butyric acid] | < 2000 | < 2000 |  |  | 
COc1cc2c(Oc3ccc(NC(=O)Nc4ccc(C(F)(F)F)cc4)cc3F)ccnc2cc1OCCC[C@@H](N)C(=O)O [Example 124, (R)-2-Amino-5-(4-{2-fluoro-4-[3-(4-trifluoromethyl-phenyl)-ureido]-phenoxy}-6-methoxy-quinolin-7-yloxy)-pentanoic acid] | < 2000 | < 2000 |  |  | 
COc1cc2c(Oc3ccc(NC(=O)c4ccccc4)cc3)ccnc2cc1OCCC[C@H](N)C(=O)O [Example 110, (S)-2-Amino-5-[4-(4-benzoylamino-phenoxy)-6-methoxy-quinolin-7-yloxy]-pentanoic acid] | < 2000 | < 2000 |  |  | 
COc1cc2c(Oc3ccc(NC(=O)C4CC4)cc3)ccnc2cc1OCC[C@H](N)C(=O)O [Example 60, (S)-2-Amino-4-{4-[4-(cyclopropanecarbonyl-amino)-phenoxy]-6-methoxy-quinolin-7-yloxy}-butyric acid] | > 5000 | > 5000 |  |  | 
COc1cc2c(Nc3cnc(NC(=O)c4ccccc4)nc3)ccnc2cc1OCC[C@H](N)C(=O)O [Example 26, (S)-2-Amino-4-[4-(2-benzoylamino-pyrimidin-5-ylamino)-6-methoxy-quinolin-7-yloxy]-butyric acid] | < 2000 | 2000 to 5000 |  |  | 
COc1cc2c(Oc3ccc(NC(=O)Nc4ccc(C(F)(F)F)cc4)cc3)ccnc2cc1OCC[C@@H](N)C(=O)O [Example 105, (R)-2-Amino-4-(6-methoxy-4-{4-[3-(4-trifluoromethyl-phenyl)-ureido]-phenoxy}-quinolin-7-yloxy)-butyric acid] | < 2000 | < 2000 |  |  | 
COc1cc2c(Oc3ccc(NC(=O)Nc4ccc(C(F)(F)F)cc4)cc3)ccnc2cc1OCCC[C@H](N)C(=O)O [Example 114, (S)-2-Amino-5-(6-methoxy-4-{4-[3-(4-trifluoromethyl-phenyl)-ureido]-phenoxy}-quinolin-7-yloxy)-pentanoic acid] | < 2000 | < 2000 |  |  | 
COc1cc2c(Oc3ccc(CC(=O)Nc4ccc(F)cc4)cc3)ccnc2cc1OCC[C@H](N)C(=O)O [Example 87, (S)-2-Amino-4-(4-{4-[(4-fluoro-phenylcarbamoyl)-methyl]-phenoxy}-6-methoxy-quinolin-7-yloxy)-butyric acid] | > 5000 | < 2000 |  |  | 
COc1cc2c(Oc3ccc(NC(=O)Nc4ccccc4)cc3)ccnc2cc1OCCC[C@H](N)C(=O)O [Example 112, (S)-2-Amino-5-{6-methoxy-4-[4-(3-phenyl-ureido)-phenoxy]-quinolin-7-yloxy}-pentanoic acid] | < 2000 | < 2000 |  |  | 
COc1cc2c(Oc3ccc(C(=O)Nc4ccccc4)cc3)ccnc2cc1OCC[C@H](N)C(=O)O [Example 78, (S)-2-Amino-4-[6-methoxy-4-(4-phenylcarbamoyl-phenoxy)-quinolin-7-yloxy]-butyric acid] | 2000 to 5000 | 2000 to 5000 |  |  | 
COc1cc2c(Oc3ccc(NC(=O)c4ccccc4)cc3)ccnc2cc1OCC[C@H](N)C(=O)O [Example 4, (S)-2-Amino-4-[4-(4-benzoylamino-phenoxy)-6-methoxy-quinolin-7-yloxy]-butyric acid] | < 2000 | < 2000 |  |  | 
COc1cc2c(Oc3ccc(NC(=O)Nc4ccc(C(F)(F)F)cc4)cc3)ccnc2cc1OCC[C@H](N)C(=O)O [Example 94, (S)-2-Amino-4-(6-methoxy-4-{4-[3-(4-trifluoromethyl-phenyl)-ureido]-phenoxy}-quinolin-7-yloxy)-butyric acid] | < 2000 | < 2000 |  |  | 
COc1cc2nccc(Oc3ccc(NC(=O)c4ccccc4)cc3)c2cc1OCC[C@H](N)C(=O)O [Example 36, (S)-2-Amino-4-[4-(4-benzoylamino-phenoxy)-7-methoxy-quinolin-6-yloxy]-butyric acid] | < 2000 | 2000 to 5000 |  |  | 
COc1cc2c(Oc3ccc(NC(=O)Nc4ccc(C(F)(F)F)cc4)cc3F)ccnc2cc1OCC[C@H](N)C(=O)O [Example 126, (S)-2-Amino-4-(4-{2-fluoro-4-[3-(4-trifluoromethyl-phenyl)-ureido]-phenoxy}-6-methoxy-quinolin-7-yloxy)-butyric acid] | < 2000 | < 2000 |  |  | 
COc1cc2c(Oc3ccc(NC(=O)Nc4ccccc4)cc3)ccnc2cc1OCCC[C@@H](N)C(=O)O [Example 118, (R)-2-Amino-5-{6-methoxy-4-[4-(3-phenyl-ureido)-phenoxy]-quinolin-7-yloxy}-pentanoic acid] | < 2000 | < 2000 |  |  | 
COc1cc2c(Oc3ccc(NC(=O)c4ccc(F)cc4)cc3)ccnc2cc1OCC[C@H](N)C(=O)O [Example 64, (S)-2-Amino-4-{4-[4-(4-fluoro-benzoylamino)-phenoxy]-6-methoxy-quinolin-7-yloxy}-butyric acid] | 2000 to 5000 | < 2000 |  |  | 
COc1cc2c(Oc3ccc(NC(=O)c4cc(C(F)(F)F)ccc4F)cc3)ccnc2cc1OCC[C@H](N)C(=O)O [Example 69, (S)-2-Amino-4-{4-[4-(2-fluoro-5-trifluoromethyl-benzoylamino)-phenoxy]-6-methoxy-quinolin-7-yloxy}-butyric acid] | 2000 to 5000 | < 2000 |  |  | 
COc1cc2c(Oc3ccc(NC(=O)c4ccccc4)cc3)ccnc2cc1OCCC[C@@H](N)C(=O)O [Example 116, (R)-2-Amino-5-[4-(4-benzoylamino-phenoxy)-6-methoxy-quinolin-7-yloxy]-pentanoic acid] | < 2000 | < 2000 |  |  | 
COc1cc2c(Oc3ccc(NC(=O)c4cccs4)cc3)ccnc2cc1OCC[C@H](N)C(=O)O [Example 76, (S)-2-Amino-4-(6-methoxy-4-{4-[(thiophene-2-carbonyl)-amino]-phenoxy}-quinolin-7-yloxy)-butyric acid] | < 2000 | < 2000 |  |  | 
